Data published in patent US12357579B2, “Capsule for treating ulcerative colitis” (KEIO UNIVERSITY, priority 2018, dated 2025).

How the values were obtained:
mouse model of colitis = settings: cited from earlier work
[1] = test system: colitis model mice (2.0% DSS, C57BL/6J); test: DSS-induced colitis model mice: colitis-suppressing action (body weight, DAI score, colon length); type: in vivo; settings: oral, 7 days; for effect on colitis (overall): indigo amount 0.5 mg/day (equivalent to 25 mg/kg/day)
Description: As mice used in an animal test, C57BL/6J was started to use after preliminary breeding for 3 days after purchase. First, a 2.0% solution of DSS (dextran sulfate sodium salt, molecular weight 36,000 to 44,000) was given to mice to cause colitis to prepare colitis model mice. The colitis model mice were administered with only sterilized water to obtain control mice. It should be noted that, in order to maintain the colitis state of the mice for 7 days, the 2.0% DDS (dextran sulfate sodium salt) solution was orally administered at the same time as the administration of the sterile water. Five capsules (equivalent to indigo amount of 0.5 mg) and 15 capsules (equivalent to indigo amount of 1.5 mg) both of which were the indigo-containing capsules A were each orally administered to 5 specimens of colitis mice for 7 days. It should be noted that, in order to maintain the colitis state of the mice for 7 days, the 2.0% DDS (dextran sulfate sodium salt) solution was orally administered at the same time when the oral administration of the capsules A. Colitis-suppressing action of indigo was evaluated by a decrease in the endpoints such as body weight (BW), disease activity index (DAI) score (DAI score: a total score (0 to 12) of the number of defecation, bloody stool, mucosal findings, and general endpoints scored 0 to 3 on a 4-point scale), and colon length. […] FIG. 3 is a graph representing results of disease activity index score (DAI score). It should be noted that the DAI score refers to an evaluation index described in the literature “Sutherland L R, Martin F, Greer S, et al: 5-Aminosalicylic acid enema in the treatment of distal colitis, proctosigmoiditis, and proctitis. Gastroenterology 92: 1894-1898, 1987”. FIG. 4 is a graph representing results of measuring colon length. Since the colon length is shortened by causing colitis, the colon length of each mouse group was measured as another index for the evaluation of colitis, and the average value thereof was represented by a histogram.

[2] = indigo amount 0.5 mg/day, vs control group

For `O=C1/C(=C2\Nc3ccccc3C2=O)Nc2ccccc21` [indigo powder, indigo], the “effect in colitis model mice” value (mouse model of colitis; low dose 60 mg/kg/day of powder) is listed as “effective”, the “therapeutic effect in mouse model of colitis” value (mouse model of colitis; powder administration) is listed as “had a therapeutic effect” and the “effect on colitis (overall)” value [1] is listed as “no effect of indigo was observed”. The “effect on colitis (overall)” value ([1]; listed as powder) was “no effect”, the “changes in body weight (BW)” value [1, 2] was “decreasing the body weight was also observed as compared with the control group” and the colon length [1, 2] was “the same as that of the control group”.
